Experimental data taken from patent publication US9566312B2, “Cyclic peptides and use as medicines” (priority 2012, dated 2017).
pIC50: −log10 of the molar value. Read-outs that look alike come from different tables or passages of the source. Starred links: 1 amine or outer side, 2 acyl side, 3 side chain; linkers in the order of their positions; H or OH if unused. Non-standard residues stand in square brackets, D forms with d. Residues, ends and D or L forms follow the SMILES beside them. X44 = CC(C)N1CCN(C(=O)COC[C@@H](C)[C@@H](C(=O)[*:2])N(C)[*:1])CC1; X66 = C[C@H](COCC(=O)N1CCN(C)CC1)[C@@H](C(=O)[*:2])N(C)[*:1]; X69 = C[C@H](CCCN1CCC(C(N)=O)CC1)[C@@H](C(=O)[*:2])N(C)[*:1]; X1 = COC[C@@H]1CN(C[C@H](C)[C@@H](C(=O)[*:2])N(C)[*:1])CCO1; X60 = C[C@H](CCCN1CC2CCC(C1)N2C)[C@@H](C(=O)[*:2])N(C)[*:1]; X36 = C[C@H](COCCN(C)CC(F)(F)F)[C@@H](C(=O)[*:2])N(C)[*:1]; X40 = C[C@H](COCC(=O)N1CCNCC1)[C@@H](C(=O)[*:2])N(C)[*:1]; X52 = C[C@H](CCC(=O)N1CCOCC1)[C@@H](C(=O)[*:2])N(C)[*:1]; MeBmt = C/C=C/C[C@@H](C)[C@@H](O)[C@H](NC)C(=O)O; NMeVal(4-OMe,3S) = CN[C@H](C(=O)O)[C@H](C)COC; NMeL = CN[C@@H](CC(C)C)C(=O)O; NMeV = CN[C@H](C(=O)O)C(C)C; dNMeS = CN[C@H](CO)C(=O)O; dNMeA = CN[C@H](C)C(=O)O; Abu = CC[C@H](N)C(=O)O

Assays:
[1] = target: organic anion transporting polypeptide 1B1 (OATP1B1) (Homo sapiens (Human), UniProt Q9Y6L6); test: OATP assay in CHO-OATP1B1 cells;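 note: inhibition of probe substrate uptake into the cells, ten minutes exposure, accumulated substrate read by fluorescence once cells were lysed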
Chain of organic anion transporting polypeptide 1B1 (OATP1B1) (Q9Y6L6 whole entry): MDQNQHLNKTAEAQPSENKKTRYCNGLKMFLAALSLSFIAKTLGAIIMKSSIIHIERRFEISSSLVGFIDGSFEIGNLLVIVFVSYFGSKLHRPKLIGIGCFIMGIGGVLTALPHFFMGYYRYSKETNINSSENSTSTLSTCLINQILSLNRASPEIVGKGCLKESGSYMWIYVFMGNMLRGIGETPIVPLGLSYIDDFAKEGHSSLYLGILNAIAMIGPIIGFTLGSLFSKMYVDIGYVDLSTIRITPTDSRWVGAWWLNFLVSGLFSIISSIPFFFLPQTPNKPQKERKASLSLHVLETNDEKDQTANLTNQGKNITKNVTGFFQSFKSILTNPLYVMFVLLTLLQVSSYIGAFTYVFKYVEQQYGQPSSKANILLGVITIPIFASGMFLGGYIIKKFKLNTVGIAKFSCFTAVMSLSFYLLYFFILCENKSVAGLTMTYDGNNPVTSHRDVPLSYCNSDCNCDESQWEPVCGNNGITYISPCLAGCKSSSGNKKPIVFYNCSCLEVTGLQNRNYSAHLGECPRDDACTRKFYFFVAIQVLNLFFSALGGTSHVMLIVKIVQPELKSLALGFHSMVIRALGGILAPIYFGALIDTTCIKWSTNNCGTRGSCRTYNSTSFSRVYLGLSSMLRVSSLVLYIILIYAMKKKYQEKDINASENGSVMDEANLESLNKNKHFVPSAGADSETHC
Experimental: In order to determine whether the compounds of the present invention interact with hepatic transporters, experiments were carried out that compared the concentration-dependent inhibition toward the organic anion transporting polypeptide 1B1 (OATP1B1) and the multidrug resistance associated protein 2 (MRP2).
The cells were cultured in DMEM/F12 +10% FBS+2 mM Ala-Gln+1% Pen-Strep for a period of two days, and the media was changed one day post-seeding. Prior to the assay, media was aspirated and were washed −3× with HBSS+10 mM HEPES and the solution was equilibrated for 15 min in HBSS+10 mM HEPES. Solutions containing the inhibitor were prepared in HBSS+10 mM HEPES (up to 1% DMSO). […] After 10 min, the substrate or substrate/inhibitor solution was aspirated and the cells were washed 3× with HBSS+10 mM HEPES. The amount of the transported probe substrate was determined by fluorescent photometry after cell lysis, and the IC50 was derived from the concentration-response curve.

[2] = target: CypF (Homo sapiens (Human), UniProt P30405); test: Inhibitor binding to cyclophilin proteins by SPR, CypF; settings: 1:1 binding model
Chain of CypF (P30405 30-207): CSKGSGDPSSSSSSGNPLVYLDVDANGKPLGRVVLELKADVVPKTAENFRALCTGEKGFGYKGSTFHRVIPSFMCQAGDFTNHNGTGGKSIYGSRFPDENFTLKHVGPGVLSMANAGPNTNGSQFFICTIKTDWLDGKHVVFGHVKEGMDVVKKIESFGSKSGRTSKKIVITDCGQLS
Experimental: (§1) Method 1: Measuring Inhibitor Binding to Cyclophilin Proteins
(§2) Binding of inhibitors to expressed cyclophilins was determined using surface plasmon resonance (SPR) experiments. Briefly, avi-tagged cyclophilin proteins with mono-biotinylation were immobilized onto a Biotin CAPture chip (GE Healthcare, cat. #28920234). SPR experiments were carried out on an upgraded Biacore T200 system using a running buffer containing the inhibitor, 10 mM HEPES, pH 7.4, 150 mM NaCl, 0.05% P20, and 3% DMSO. Single-cycle kinetics measurements were used to study the interactions between cyclophilin inhibitors and different cyclophlins. Accordingly, compound at various concentrations was injected to the flow cells with a contact time of 1 min each at a flow rate of 50 μL/min. The final dissociation phase lasts for 10 min following the sample injection. Data was analyzed using Biacore T200 Evaluation Software Version 1.0 and a 1:1 binding model was applied to fit the data to obtain kon, koff, and KD.

[3] = target: cyclophilin A (CypA) (Homo sapiens (Human), UniProt P62937); test: Inhibitor binding to cyclophilin proteins by SPR, CypA; parameters: unit not given here; settings: 1:1 binding model
Chain of cyclophilin A (CypA) (P62937 whole entry): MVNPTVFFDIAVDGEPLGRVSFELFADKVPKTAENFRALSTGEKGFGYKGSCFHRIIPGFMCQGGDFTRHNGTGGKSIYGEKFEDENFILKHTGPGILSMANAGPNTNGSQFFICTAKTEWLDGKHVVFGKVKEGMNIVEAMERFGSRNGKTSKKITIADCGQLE

[4] = target: cyclophilin B (CypB) (Homo sapiens (Human), UniProt P23284); test: Inhibitor binding to cyclophilin proteins by SPR, CypB; parameters: unit not given here; settings: 1:1 binding model
Chain of cyclophilin B (CypB) (P23284 34-216): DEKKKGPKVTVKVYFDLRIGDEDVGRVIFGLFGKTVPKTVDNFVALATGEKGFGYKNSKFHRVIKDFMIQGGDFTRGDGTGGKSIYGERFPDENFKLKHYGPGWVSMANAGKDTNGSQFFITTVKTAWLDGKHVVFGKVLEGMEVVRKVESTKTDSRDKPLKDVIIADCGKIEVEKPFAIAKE
Experimental: as §1, §2

[5] = test system: peripheral blood mononuclear cells (PBMC); test: Anti-proliferative or immunosuppressive activity, BrdU incorporation in PHA-stimulated PBMC; type: cell-based; settings: PHA 3 μg/ml, 60 hour compound treatment; read-out: EMV PBMC IC50
Experimental: Method 3: Measuring Anti-Proliferative or Immunosuppressive Activity
The potential anti-proliferative activity of compounds on T-cells was analyzed based on the amount of bromodesoxy uridine (BrdU) incorporated into DNA of fresh peripheral blood mononuclear cells (PBMC) using the BrdU ELISA kit (Roche). The assay is performed in 96-well plate format with 30,000 PBMCs seeded per well in X-VIVO 15 medium (Lonza). T-cell proliferation was stimulated by addition of 3 μg/ml phytohemagglutinin (PHA) in PBMCs obtained from two donors.

[6] = test system: genotype 1b subgenomic HCV replicon in Huh7.5 cells; type: cell-based, hepatitis C virus; settings: read-out: RPLN-1b IC50
Experimental: Method 2: Measuring Inhibitory Effects in a HCV Replicon System
Susceptibility to compounds was analyzed in Huh7.5 cells containing genotype 1a or 1b subgenomic HCV replicons co-expressing a luciferase reporter gene. The original replicons, pFK389lucubineo_3_3′_ET and pH/SG-Neo(L+I), were licensed from ReBlicon GmbH (Germany) and Apath LLC (Saint Louis, Mo.), respectively. The firefly reporter gen was replaced by renilla luciferase reporter gene using standard molecular biology techniques as follows.
Generation of genotype 1b subgenomic replicon: The renilla […]-neomycin phosphotransferase cassette was amplified from pF9 cytomegalovirus (CMV) hRluc-Neo Flexi(R) (Promega) by PCR using Accuprime super mix II (Invitrogen) and a primer set of Ascl hRlucNeo Fwd and NotI hRluc Rev. These two primers have the following sequences and introduce restriction sites for subsequent cloning: Ascl hRlucNeo Fwd, 5 […] 3(Ascl site underlined) (SEQ. ID No. 1), and NotI hRluc Rev, 5[…] 3(NotI site underlined) (SEQ ID No. 2). The amplification product was subcloned into pCR2.1-TOPO (Invitrogen). The resulting plasmid was digested with Ascl and NotI, and the excised fragment (hRluc-Neo) was ligated with the Roche Quick Ligation Kit (Roche) into pFK1389lucubineo_3_3′_ET digested with the same enzymes.
The assay medium for both, luciferase reporter HCV replicon and cytotoxicity assays contains phenol red-free DMEM and lacks G418. […] Luciferase activity of compound treated cells is measured relative to DMSO treated cells after 72 h incubation using Renilla-Glo™ Luciferase Assay (Promega). Cytotoxicity (CC50) is analyzed using Cell Titer-Glo™ (Promega).

[7] = genotype 1b replicon, 72 h incubation

SMILES | pIC50 [1] | CypF Kd [2] [nM] | CypA Kd [3] | CypB Kd [4] | pIC50 [5] | pIC50 [6, 7] | pIC50 [6]
C/C=C/C[C@@H](C)[C@@H](O)[C@H]1C(=O)N[C@@H](CC)C(=O)N(C)[C@H](C)C(=O)N(C)[C@@H]([C@H](C)COCC(=O)N2CCNCC2)C(=O)N[C@@H](C(C)C)C(=O)N(C)[C@@H](CC(C)C)C(=O)N[C@@H](C)C(=O)N[C@H](C)C(=O)N(C)[C@@H](CC(C)C)C(=O)N(C)[C@@H](CC(C)C)C(=O)N(C)[C@@H](C(C)C)C(=O)N1C [Compound 2.6.1, 3-[D-Ala]-4-[(2S,3S)-3-methyl-2-(methylamino)-4-(2-oxo-2-(piperazin-1-yl)ethoxy)butanoyl]-cyclosporin] (cyclo(A[dA][NMeL][NMeL][NMeV][MeBmt][Abu][dNMeA][X40]V[NMeL])) | 5.16 | 0.4 | 1.0 | 0.7 |  |  | 
C/C=C/C[C@@H](C)[C@@H](O)[C@H]1C(=O)N[C@@H](CC)C(=O)N(C)[C@H](C)C(=O)N(C)[C@@H]([C@H](C)COCC(=O)N2CCN(C)CC2)C(=O)N[C@@H](C(C)C)C(=O)N(C)[C@@H](CC(C)C)C(=O)N[C@@H](C)C(=O)N[C@H](C)C(=O)N(C)[C@@H](CC(C)C)C(=O)N(C)[C@@H](CC(C)C)C(=O)N(C)[C@@H](C(C)C)C(=O)N1C [Compound 2.6.3, 3-[D-Ala]-4-[(2S,3S)-3-methyl-2-(methylamino)-4-(2-(4-methylpiperazin-1-yl)-2-oxoethoxy)butanoyl]-cyclosporin] (cyclo(A[dA][NMeL][NMeL][NMeV][MeBmt][Abu][dNMeA][X66]V[NMeL])) | 5.03 | 0.5 | 1.5 | 0.8 |  |  | 
C/C=C/C[C@@H](C)[C@@H](O)[C@H]1C(=O)N[C@@H](CC)C(=O)N(C)[C@H](C)C(=O)N(C)[C@@H]([C@H](C)COCC(=O)N2CCN(C(C)C)CC2)C(=O)N[C@@H](C(C)C)C(=O)N(C)[C@@H](CC(C)C)C(=O)N[C@@H](C)C(=O)N[C@H](C)C(=O)N(C)[C@@H](CC(C)C)C(=O)N(C)[C@@H](CC(C)C)C(=O)N(C)[C@@H](C(C)C)C(=O)N1C [Compound 2.6.4, 3-[D-Ala]-4-[(2S,3S)-4-(2-(4-isopropylpiperazin-1-yl)-2-oxoethoxy)-3-methyl-2-(methylamino)butanoyl]-cyclosporin] (cyclo(A[dA][NMeL][NMeL][NMeV][MeBmt][Abu][dNMeA][X44]V[NMeL])) | 5.10 | 0.6 | 1.4 | 1.1 |  |  | 
C/C=C/C[C@@H](C)[C@@H](O)[C@H]1C(=O)N[C@@H](CC)C(=O)N(C)[C@H](C)C(=O)N(C)[C@@H]([C@H](C)COCCN(C)CC(F)(F)F)C(=O)N[C@@H](C(C)C)C(=O)N(C)[C@@H](CC(C)C)C(=O)N[C@@H](C)C(=O)N[C@H](C)C(=O)N(C)[C@@H](CC(C)C)C(=O)N(C)[C@@H](CC(C)C)C(=O)N(C)[C@@H](C(C)C)C(=O)N1C [Compound 2.8.3, 3-[D-Ala]-4-[(2S,3S)-3-methyl-4-(2-(methyl(2,2,2-trifluoroethyl)amino)ethoxy)-2-(methylamino)butanoyl]-cyclosporin] (cyclo(A[dA][NMeL][NMeL][NMeV][MeBmt][Abu][dNMeA][X36]V[NMeL])) | 5.72 | 4.1 | 4.4 | 3.3 |  |  | 
C/C=C/C[C@@H](C)[C@@H](O)[C@H]1C(=O)N[C@@H](CC)C(=O)N(C)[C@H](C)C(=O)N(C)[C@@H]([C@H](C)COCCN2CCN3C(=O)OC[C@@H]3C2)C(=O)N[C@@H](C(C)C)C(=O)N(C)[C@@H](CC(C)C)C(=O)N[C@@H](C)C(=O)N[C@H](C)C(=O)N(C)[C@@H](CC(C)C)C(=O)N(C)[C@@H](CC(C)C)C(=O)N(C)[C@@H](C(C)C)C(=O)N1C [Compound 2.8.11, 3-[D-Ala]-4-[(2S,3S)-3-methyl-2-(methylamino)-4-(2-((S)-3-oxotetrahydro-1H-oxazolo[3,4-a]pyrazin-7(3H)-yl)ethoxy)butanoyl]-cyclosporin] |  | 0.5 | 1.3 | 0.6 | 4.91 | 7.24 | 
C/C=C/C[C@@H](C)[C@@H](O)[C@H]1C(=O)N[C@@H](CC)C(=O)N(C)[C@H](C)C(=O)N(C)[C@@H]([C@H](C)CCC(=O)N2CCOCC2)C(=O)N[C@@H](C(C)C)C(=O)N(C)[C@@H](CC(C)C)C(=O)N[C@@H](C)C(=O)N[C@H](C)C(=O)N(C)[C@@H](CC(C)C)C(=O)N(C)[C@@H](CC(C)C)C(=O)N(C)[C@@H](C(C)C)C(=O)N1C [Compound 2.14.4, 3-[D-Ala]-4-[(2S,3R)-3-methyl-2-(methylamino)-6-morpholino-6-oxohexanoyl]-cyclosporin] (cyclo(A[dA][NMeL][NMeL][NMeV][MeBmt][Abu][dNMeA][X52]V[NMeL])) | 5.32 | 1.1 | 2.1 | 1.5 |  |  | 
C/C=C/C[C@@H](C)[C@@H](O)[C@H]1C(=O)N[C@@H](CC)C(=O)N(C)[C@H](C)C(=O)N(C)[C@@H]([C@@H](C)CN2CCO[C@H](COC)C2)C(=O)N[C@@H](C(C)C)C(=O)N(C)[C@@H](CC(C)C)C(=O)N[C@@H](C)C(=O)N[C@H](C)C(=O)N(C)[C@@H](CC(C)C)C(=O)N(C)[C@@H](CC(C)C)C(=O)N(C)[C@@H](C(C)C)C(=O)N1C [Compound 2.17.11, 3-[D-Ala]-4-[(2S,3S)-4-((S)-2-(methoxymethyl)morpholino)-3-methyl-2-(methylamino)butanoyl]-cyclosporin] (cyclo(A[dA][NMeL][NMeL][NMeV][MeBmt][Abu][dNMeA][X1]V[NMeL])) |  | 0.6 | 1.1 | 0.7 | 4.44 | 7.66 | 
C/C=C/C[C@@H](C)[C@@H](O)[C@H]1C(=O)N[C@@H](CC)C(=O)N(C)[C@H](C)C(=O)N(C)[C@@H]([C@H](C)CCCN2CCC(C(N)=O)CC2)C(=O)N[C@@H](C(C)C)C(=O)N(C)[C@@H](CC(C)C)C(=O)N[C@@H](C)C(=O)N[C@H](C)C(=O)N(C)[C@@H](CC(C)C)C(=O)N(C)[C@@H](CC(C)C)C(=O)N(C)[C@@H](C(C)C)C(=O)N1C [Compound 2.19.2, 3-[D-Ala]-4-[(2S,3R)-6-(4-carbamoylpiperidin-1-yl)-3-methyl-2-(methylamino)hexanoyl]-cyclosporin] (cyclo(A[dA][NMeL][NMeL][NMeV][MeBmt][Abu][dNMeA][X69]V[NMeL])) |  | 0.5 | 0.9 | 0.6 | 4.49 | 5.57 | 
C/C=C/C[C@@H](C)[C@@H](O)[C@H]1C(=O)N[C@@H](CC)C(=O)N(C)[C@H](C)C(=O)N(C)[C@@H]([C@H](C)CCCN2CC3CCC(C2)N3C)C(=O)N[C@@H](C(C)C)C(=O)N(C)[C@@H](CC(C)C)C(=O)N[C@@H](C)C(=O)N[C@H](C)C(=O)N(C)[C@@H](CC(C)C)C(=O)N(C)[C@@H](CC(C)C)C(=O)N(C)[C@@H](C(C)C)C(=O)N1C [Compound 2.19.3] (cyclo(A[dA][NMeL][NMeL][NMeV][MeBmt][Abu][dNMeA][X60]V[NMeL])) |  | 0.3 | 0.8 | 0.4 | 5.70 | 6.54 | 
C/C=C/C[C@@H](C)[C@@H](O)[C@H]1C(=O)N[C@@H](CC)C(=O)N(C)[C@H](CO)C(=O)N(C)[C@@H]([C@H](C)COC)C(=O)N[C@@H](C(C)C)C(=O)N(C)[C@@H](CC(C)C)C(=O)N[C@@H](C)C(=O)N[C@H](C)C(=O)N(C)[C@@H](CC(C)C)C(=O)N(C)[C@@H](CC(C)C)C(=O)N(C)[C@@H](C(C)C)C(=O)N1C [Compound 3.2.3, 3-[D-ser]-4-[(2S,3S)-4-methoxy-3-methyl-2-(methylamino)butanoyl]-cyclosporin] (cyclo(A[dA][NMeL][NMeL][NMeV][MeBmt][Abu][dNMeS][NMeVal(4-OMe,3S)]V[NMeL])) |  | 7 | 15 | 7 | 5.05 |  | 6.48
